Measured values taken from publication PMC7607171, “Optimized low‐dose combinatorial drug treatment boosts selectivity and efficacy of colorectal carcinoma treatment” (Molecular Oncology, 2020).
Where “and” joins values, the source holds several entries; their conditions need not be identical. Identical values can stand only once.

Key:
DLD1 tumors = assay: Subcutaneous xenograft tumor growth; type: in vivo, Swiss nu/nu mice
Method: All procedures including animal use were performed in accordance with the Institutional Ethical Committee of Animal Care in Geneva and the Swiss Cantonal Veterinary Office (Authorization number GE‐136‐19). Briefly, female and male Swiss nu/nu mice aged 6–8 weeks were obtained from Charles River (Écully, France). For subcutaneous xenografts mice were inoculated in the left flank with 5x10^6 DLD1 or SW620 cells suspended in 100 µL of cell culture medium, supplemented with 1% FBS.
Drugs were administered through oral gavage based on average body weight of the males (100 µL/mouse) and females (80 µL/mouse) at various concentrations, see Tables S10 and S11.
Solution A: step (1) 30% PEG 400 + 5% propylene glycol + 0.5% Tween 80 and (2) 64.5% sterile H2O. Solution B: step (1) 10% DMSO, (2) 30% PEG 300 + 5% Tween 80 and (3) 55% sterile H2O. […] FOLFOX was administered as 6 mg/kg oxaliplatin two hours before administration of 90 mg/kg leucovorin and 50 mg/kg (DLD1) or 25 mg/kg (SW620) 5‐fluorouracil at day 1 and a repeat of 5‐fluorouracil dosing on day 2.
The Bliss independence model can be used to evaluate the drug interaction potential of a drug mixture. […] The model is based on the probability theory and requires the drug activity of each drug at the selected dose to predict the inhibition rate (IR) at additive doses.

[1] = Pharmacokinetics, dried blood spot LC-MS/MS, mice with DLD1 tumors; type: in vivo; details: for Tmax / AUC(0-t) / Cmax: Swiss Nu/nu, mouse, whole blood (dried blood spot), po, regorafenib 15, erlotinib 12.5, selumetinib 5, vemurafenib 75 mg/kg; for AUC(0-t) / Cmax: whole blood, mean ± SD; for AUC(0-t): oral, read-out: AUC0-24h; for increase of AUC as part of the ODC vs single-drug treatment: mice with DLD1 tumors, AUC0-24h
Method: (§1) The pharmacokinetic (PK) study was performed using the dried blood spot method. Mice were treated with CTRL, ODCs, and corresponding monotherapies as described above. To determine the disposition in blood in the first 24h, blood samples (5 µL/mouse) were collected from the tail vein (n = 4 mice) at 2h, 4h, 8h, and 24h time points and transferred onto paper (a filter paper 903 protein saver card from Whatman (MA, USA)). A disk with the entire spot was punched from the paper card and transferred to the HPLC vial tube. Hundred µL of MeOH containing a mix of internal standards was added, and the tube was vortex‐mixed for about 1 min before injecting 10 µL into the LC‐MS/MS system. The LC‐MS/MS system consisted of an API 4,000 triple quadrupole mass spectrometer (AB sciex, Concord, ON, Canada) controlled by analyst 1.6.1 software. The mass spectrometer was operated in the multiple reaction monitoring (MRM) mode with positive electrospray ionization. The instrument was coupled with an Agilent series 1100 (Waldbronn, Germany) LC system. Chromatography was performed on a Phenomenex Kinetex C18 analytical column (50 mm x 2.1 mm, 2.6 um; Torrance, CA, USA). The flow rate was 0.5 mL/min using gradient elution conditions. The method was fully validated before application to this pharmacokinetic study.

[2] = Pharmacokinetics, dried blood spot LC-MS/MS, mice with SW620 tumors; type: in vivo; details: for Tmax / AUC(0-t) / Cmax: Swiss Nu/nu, mouse, whole blood (dried blood spot), po, regorafenib 30, vemurafenib 75, GDC-0994 10 mg/kg; for AUC(0-t) / Cmax: whole blood, mean ± SD; for AUC(0-t): oral, read-out: AUC0-24h; for increase of AUC as part of the ODC vs single-drug treatment: mice bearing SW620 tumors, AUC0-24h
Method: as §1

[3] = Serum and intratumor drug concentration at experimental endpoint, DLD1 model; type: in vivo, mice; details: for concentration at 1 h / Kp at 1 h: Swiss Nu/nu, mouse, oral; for concentration at 1 h: 1h post-treatment at endpoint (day 15); for Kp at 1 h: tumor vs serum, read-out: ratio tumor vs serum; for Kp at 1 h / ratio ODC vs single drug: DLD1 model
Method: (§2) At the experimental endpoint, plasma and tumors were collected 1h post‐treatment and part of the tumor tissue was used to determine the intratumor drug concentrations. Plasma and tumor samples were analyzed using the same LC‐MS/MS method used for drug determination in DBS. Before analysis, tumor tissues were homogenized in a 1 mL mixture of water/acetonitrile (30/70). Hundred uL of homogenates were transferred into new tubes and 50 µL of acetonitrile, as well as 50 µL of a mix of internal standards in MeOH were added. Tubes were vortexed and centrifuged for 10 min at 9,000 rpm. The supernatant (100 µL) was evaporated under nitrogen and reconstituted in 100 µL of acetonitrile with 0.1% formic acid/water with 0.1% formic acid (30/70). 10 µL was then injected into the LC‐MS/MS system. Plasma samples were spotted onto the same paper used for whole blood analysis and were extracted and analyzed using the same methods as used for DBS.

[4] = Serum and intratumor drug concentration at experimental endpoint, SW620 model; type: in vivo, mice; details: for concentration at 1 h / Kp at 1 h: Swiss Nu/nu, mouse, oral; for concentration at 1 h: 1h post-treatment at endpoint (day 19); for Kp at 1 h: tumor vs serum, read-out: ratio tumor vs serum; for Kp at 1 h / ratio ODC vs single drug: SW620 model
Method: as §2

[5] = Clinical plasma pharmacokinetics in patients, plasma concentration limit calculation; type: in vivo; details: average plasma concentration calculated from AUC0-24h in patients
Method: To select for clinically relevant doses, the clinically attainable drug concentration measured in the blood plasma of patients after treatment is used to calculate the concentration limit for in vitro experiments. […] The average drug concentration is calculated from the AUC0–24h and is implemented as the plasma concentration limit (PCL) which drug dose selection must remain below for in vitro experiments. If a drug is FDA approved, the AUC0–24h selected is the one corresponding to the recommended dose in clinical practice. If a drug is in clinical trials, the AUC0–24h selected is the one corresponding to the maximum tolerated dose in early stage clinical trials. Note, experiments were conducted with the most current PCL calculated from the AUC0–24h information available at the start of experiments (December 2017), see Table S4.

[6] = regorafenib 15 mg/kg, Exp 5, Day 16
[7] = regorafenib 30 mg/kg, Exp 2, Day 14
[8] = regorafenib 30 mg/kg, Exp 5, Day 16
[9] = regorafenib 50 mg/kg, Exp 3, Day 13
[10] = given as part of DLD1-specific ODC
[11] = given as part of SW620-specific ODC
[12] = serum, as part of ODC, regorafenib 15, erlotinib 12.5, selumetinib 5, vemurafenib 75 mg/kg, read-out: concentration serum
[13] = serum, single drug, regorafenib 15, erlotinib 12.5, selumetinib 5, vemurafenib 75 mg/kg, read-out: concentration serum
[14] = tumor (DLD1), as part of ODC, DLD1 tumor, doses as E156, read-out: concentration tumor
[15] = tumor (DLD1), single drug, DLD1 tumor, doses as E156, read-out: concentration tumor
[16] = serum, as part of ODC, regorafenib 30, selumetinib 0.2, vemurafenib 75, GDC-0994 10 mg/kg, read-out: concentration serum
[17] = serum, single drug, regorafenib 30, selumetinib 0.2, vemurafenib 75, GDC-0994 10 mg/kg, read-out: concentration serum
[18] = tumor (SW620), as part of ODC, SW620 tumor, doses as E164, read-out: concentration tumor
[19] = tumor (SW620), single drug, SW620 tumor, doses as E164, read-out: concentration tumor
[20] = selumetinib 1 mg/kg, Exp 6, Day 18
[21] = selumetinib 5 mg/kg, Exp 5, Day 16
[22] = selumetinib 5 mg/kg, Exp 7, Day 25
[23] = selumetinib 10 mg/kg, Exp 5, Day 16
[24] = selumetinib 25 mg/kg, Exp 3, Day 13

SMILES: CNC(=O)c1cc(Oc2ccc(NC(=O)Nc3ccc(Cl)c(C(F)(F)F)c3)c(F)c2)ccn1 [regorafenib]
- % CTRL (tumor volume) (DLD1 tumors; [6]): 87 75 34 % CTRL
- Volume (DLD1 tumors; [6]): 559 479 214 mm^3
- % CTRL (tumor volume) (DLD1 tumors; regorafenib 15 mg/kg, Exp 7, Day 15): 96 24 38 % CTRL
- % CTRL (tumor volume) (DLD1 tumors; [7]): 85 46 20 % CTRL
- Volume (DLD1 tumors; [7]): 594 320 143 mm^3
- % CTRL (tumor volume) (DLD1 tumors; [8]): 63 56 25 % CTRL
- Volume (DLD1 tumors; [8]): 404 358 160 mm^3
- % CTRL (tumor volume) (DLD1 tumors; [9]): 135 76 29 % CTRL
- Volume (DLD1 tumors; [9]): 465 261 99 mm^3
- Tmax [1, 10]: 4 h
- AUC(0-t) [1, 10]: 49400 ± 2980 ng·h/mL
- Cmax [1, 10]: 3380 ± 490 ng/mL
- Tmax ([1]; mono): 8 h
- AUC(0-t) ([1]; mono): 17500 ± 5790 ng·h/mL
- Cmax ([1]; mono): 1190 ± 690 ng/mL
- increase of AUC as part of the ODC vs single-drug treatment [1]: 2.8 x
- Tmax [2, 11]: 4 h
- AUC(0-t) [2, 11]: 22200 ± 1830 ng·h/mL
- Cmax [2, 11]: 1610 ± 220 ng/mL
- Tmax ([2]; mono): 4 h
- AUC(0-t) ([2]; mono): 9860 ± 1930 ng·h/mL
- Cmax ([2]; mono): 710 ± 260 ng/mL
- increase of AUC as part of the ODC vs single-drug treatment [2]: 2.2 x
- concentration at 1 h [3, 12]: 1830 ± 540 ng/mL
- concentration at 1 h [3, 13]: 880 ± 250 ng/mL
- concentration at 1 h [3, 14]: 8670 ± 5530 ng/g
- concentration at 1 h [3, 15]: 1540 ± 680 ng/g
- Kp at 1 h ([3]; as part of ODC): 4.74
- Kp at 1 h ([3]; single drug): 1.76
- ratio ODC vs single drug ([3]; serum): 2.09
- ratio ODC vs single drug ([3]; tumor): 5.62
- concentration at 1 h [4, 16]: 6600 ± 2800 ng/mL
- concentration at 1 h [4, 17]: 2220 ± 70 ng/mL
- concentration at 1 h [4, 18]: 1820 ± 770 ng/g
- concentration at 1 h [4, 19]: 1330 ± 230 ng/g
- Kp at 1 h ([4]; as part of ODC): 0.28
- Kp at 1 h ([4]; single drug): 0.6
- ratio ODC vs single drug ([4]; serum): 2.97
- ratio ODC vs single drug ([4]; tumor): 1.37
- PCL (plasma concentration limit) [5]: 4.34 µM and 4.3 µM

SMILES: Cn1cnc2c(F)c(Nc3ccc(Br)cc3Cl)c(C(=O)NOCCO)cc21 [selumetinib]
- % CTRL (tumor volume) (DLD1 tumors; [20]): 74 29 12 % CTRL
- Volume (DLD1 tumors; [20]): 366 142 58 mm^3
- % CTRL (tumor volume) (DLD1 tumors; [21]): 37 39 20 % CTRL
- Volume (DLD1 tumors; [21]): 237 234 125 mm^3
- % CTRL (tumor volume) (DLD1 tumors; [22]): 67 50 25 % CTRL
- Volume (DLD1 tumors; [22]): 408 223 79 mm^3
- % CTRL (tumor volume) (DLD1 tumors; selumetinib 10 mg/kg, Exp 4, Day 16): 82 49 22 % CTRL
- % CTRL (tumor volume) (DLD1 tumors; [23]): 33 18 8 % CTRL
- Volume (DLD1 tumors; [23]): 213 117 52 mm^3
- % CTRL (tumor volume) (DLD1 tumors; [24]): 49 33 13 % CTRL
- Volume (DLD1 tumors; [24]): 168 112 46 mm^3
- % CTRL (tumor volume) (DLD1 tumors; selumetinib 50 mg/kg, Exp 2, Day 14): 39 16 7 % CTRL
- Tmax [1, 10]: 2 h
- AUC(0-t) [1, 10]: 24800 ± 8250 ng·h/mL
- Cmax [1, 10]: 3830 ± 1640 ng/mL
- Tmax ([1]; mono): 2 h
- AUC(0-t) ([1]; mono): 15200 ± 7590 ng·h/mL
- Cmax ([1]; mono): 1220 ± 330 ng/mL
- increase of AUC as part of the ODC vs single-drug treatment [1]: 1.6 x
- Tmax [2, 11]: 2 h
- AUC(0-t) [2, 11]: 890 ± 130 ng·h/mL
- Cmax [2, 11]: 230 ± 80 ng/mL
- Tmax ([2]; mono): 2 h
- AUC(0-t) ([2]; mono): 770 ± 140 ng·h/mL
- Cmax ([2]; mono): 240 ± 80 ng/mL
- increase of AUC as part of the ODC vs single-drug treatment [2]: 1.2 x
- concentration at 1 h [3, 12]: 3490 ± 900 ng/mL
- concentration at 1 h [3, 13]: 2500 ± 1080 ng/mL
- concentration at 1 h [3, 14]: 4530 ± 1950 ng/g
- concentration at 1 h [3, 15]: 1980 ± 660 ng/g
- Kp at 1 h ([3]; as part of ODC): 1.3
- Kp at 1 h ([3]; single drug): 0.79
- concentration at 1 h [4, 16]: 280 ± 200 ng/mL
- concentration at 1 h [4, 17]: 410 ± 350 ng/mL
- concentration at 1 h [4, 18]: 220 ± 100 ng/g
- concentration at 1 h [4, 19]: 560 ± 90 ng/g
- Kp at 1 h ([4]; as part of ODC): 0.77
- Kp at 1 h ([4]; single drug): 1.39
- PCL (plasma concentration limit) [5]: 0.60 µM and 0.6 µM
